Publication PMC3436960 (Biochemistry, 2012)

Tests used:
[1] = target: T1, S. typhimurium OMP synthase (orotate phosphoribosyltransferase) (Salmonella enterica, UniProt P08870); test: equilibrium binding by centrifugal filtration
T1 sequence (P08870 2-213): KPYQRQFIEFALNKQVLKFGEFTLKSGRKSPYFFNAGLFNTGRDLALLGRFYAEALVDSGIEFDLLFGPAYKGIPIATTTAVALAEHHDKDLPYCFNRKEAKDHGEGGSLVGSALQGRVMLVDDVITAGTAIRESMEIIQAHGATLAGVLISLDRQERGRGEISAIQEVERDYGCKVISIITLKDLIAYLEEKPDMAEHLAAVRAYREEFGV

[2] = target: S. typhimurium OMP synthase (orotate phosphoribosyltransferase) (Salmonella enterica, UniProt P08870, H105A); test: biochemical
[3] = target: S. typhimurium OMP synthase (orotate phosphoribosyltransferase) (Salmonella enterica, UniProt P08870, E107A); test: biochemical
[4] = target: S. typhimurium OMP synthase (orotate phosphoribosyltransferase) (Salmonella enterica, UniProt P08870, DEL102-102/DEL106-106); test: biochemical
[5] = target: S. typhimurium OMP synthase (orotate phosphoribosyltransferase) (Salmonella enterica, UniProt P08870, K103A); test: biochemical
[6] = target: S. typhimurium OMP synthase (orotate phosphoribosyltransferase) (Salmonella enterica, UniProt P08870, E101A); test: biochemical
[7] = target: S. typhimurium OMP synthase (orotate phosphoribosyltransferase) (Salmonella enterica, UniProt P08870, D104A); test: biochemical
[8] = substrate: O=C(O)c1cc(=O)[nH]c(=O)n1[C@@H]1O[C@H](COP(=O)(O)O)[C@@H](O)[C@H]1O; test: purified protein; conditions: 2 mM PPi, 3 mM MgCl2, 80 mM Tris-Cl, pH 8.0, 30°C
[9] = substrate: O=P(O)(O)OP(=O)(O)O; test: purified protein; conditions: 100 μM OMP, 3 mM MgCl2, 80 mM Tris-Cl, pH 8.0, 30°C
[10] = substrate: O=C(O)c1cc(=O)[nH]c(=O)[nH]1; test: purified protein; assay type: biochemical, Salmonella enterica; conditions: 1 mM PRPP, 6 mM MgCl2, 75 mM Tris-Cl, pH 8.0, 30°C
[11] = substrate: O=P(O)(O)OC[C@H]1O[C@H](OP(=O)(O)OP(=O)(O)O)[C@H](O)[C@@H]1O; test: purified protein; assay type: biochemical, Salmonella enterica; conditions: 300 μM orotate, 6 mM MgCl2, 75 mM Tris-Cl, pH 8.0, 30°C

## O=C(O)c1cc(=O)[nH]c(=O)[nH]1 [Orotate]
[1]
  Kd: 280 ± 30 µM

## O=C(O)c1cc(=O)[nH]c(=O)n1[C@@H]1O[C@H](COP(=O)(O)O)[C@@H](O)[C@H]1O [OMP]
[2]
  Kd: 4 ± 0.3 µM
[3]
  Kd: 6.5 ± 0.8 µM
[1]
  Kd: 3.1 ± 0.1 µM
[4]
  Kd: 2 ± 0.1 µM
[5]
  Kd: 3 ± 0.1 µM
[6]
  Kd: 12 ± 2 µM

## O=P(O)(O)OC[C@H]1O[C@H](OP(=O)(O)OP(=O)(O)O)[C@H](O)[C@@H]1O [PRPP]
[2]
  Kd: 92 ± 11 µM
[7]
  Kd: 13 ± 0.7 µM
[3]
  Kd: 7.1 ± 0.5 µM
[1]
  Kd: 33 ± 0.5 µM
[5]
  Kd: 125 ± 11 µM
[6]
  Kd: 36 ± 3 µM

B1: S. typhimurium OMP synthase (orotate phosphoribosyltransferase) (Salmonella enterica subsp. enterica serovar Typhimurium str. LT2) (protein)
chain: KPYQRQFIEFALNKQVLKFGEFTLKSGRKSPYFFNAGLFNTGRDLALLGRFYAEALVDSGIEFDLLFGPAYKGIPIATTTAVALAEHHDKDLPYCFNRKEAKDHGEGGSLVGSALQGRVMLVDDVITAGTAIRESMEIIQAHGATLAGVLISLDRQERGRGEISAIQEVERDYGCKVISIITLKDLIAYLEEKPDMAEHLAAVRAYREEFGV
[8]
  Km: 3 ± 0.3 µM
[9]
  Km: 31 ± 3 µM
  kcat: 18 ± 0.3 s⁻¹
  kcat/Km: 580000 M⁻¹ s⁻¹
[10]
  Km: 19 ± 3 µM
  kcat: 56 ± 2.5 s⁻¹
  kcat/Km: 3e+06 M⁻¹ s⁻¹
[11]
  Km: 18 ± 5 µM
  kcat: 56 ± 2.5 s⁻¹
  kcat/Km: 3.1e+06 M⁻¹ s⁻¹
